Test results as given in patent publication US9005580B2, “Treatment of renal cell carcinoma” (priority 2010, dated 2015).

Legend:
[1] = compared to BCNU; cited from earlier work
xenografts in nude mice = details: in some cases; cited from earlier work
Sprague-Dawley rats = details: corresponding amounts of unconjugated Orellanine, within four days; cited from earlier work
[2] = tested on: human renal cell carcinomas (SKRC-7, 786-0); type: cell-based
human renal cancer cells = details: cells derived from a primary tumor or from metastatic tumor tissue; cited from earlier work

O=NN(CCCl)C(=O)NCCO [HECNU, 1-(2-chloroethyl)-1-nitroso-3-(2-hydroxyethyl)urea]
water solubility [1]: improved water solubility

Cc1cc(N(CCOS(C)(=O)=O)CCOS(C)(=O)=O)ccc1C=O [NSC-281612]
effect on tumor mass (xenografts in nude mice): apparently complete eradication of the tumor mass

[O-][n+]1ccc(O)c(O)c1-c1c(O)c(O)cc[n+]1[O-] [Orellanine, 3,3′,4,4′-tetrahydroxy-2,2′-bipyridine-N,N′-dioxide]
loss of GFR (Sprague-Dawley rats): almost total loss of GFR
correlation between exposure concentration and fraction of cells that die [2]: clear correlation
delay between administration and onset of cell death [2]: 48 h
killing of renal cancer cells (human renal cancer cells): kills them with great efficiency
